From ChEMBL document CHEMBL1128348, “Potent non-peptide fibrinogen receptor antagonists which present an alternative pharmacophore” (J Med Chem, 1995)

What was measured:
[1] = molecular target: Integrin alpha-IIb/beta-3 (Homo sapiens, UniProt P05106+P08514); test: Inhibition of [3H]-SKF- 107260 binding to purified alphaIIb-beta3 integrin of human platelets
Homo sapiens = species on record: Homo sapiens; test: Antiaggregatory activity against human platelet-rich plasma induced by ADP; assay type: functional, organism-based

Integrin alpha-IIb/beta-3, sequence (P05106 27-788 limits assumed): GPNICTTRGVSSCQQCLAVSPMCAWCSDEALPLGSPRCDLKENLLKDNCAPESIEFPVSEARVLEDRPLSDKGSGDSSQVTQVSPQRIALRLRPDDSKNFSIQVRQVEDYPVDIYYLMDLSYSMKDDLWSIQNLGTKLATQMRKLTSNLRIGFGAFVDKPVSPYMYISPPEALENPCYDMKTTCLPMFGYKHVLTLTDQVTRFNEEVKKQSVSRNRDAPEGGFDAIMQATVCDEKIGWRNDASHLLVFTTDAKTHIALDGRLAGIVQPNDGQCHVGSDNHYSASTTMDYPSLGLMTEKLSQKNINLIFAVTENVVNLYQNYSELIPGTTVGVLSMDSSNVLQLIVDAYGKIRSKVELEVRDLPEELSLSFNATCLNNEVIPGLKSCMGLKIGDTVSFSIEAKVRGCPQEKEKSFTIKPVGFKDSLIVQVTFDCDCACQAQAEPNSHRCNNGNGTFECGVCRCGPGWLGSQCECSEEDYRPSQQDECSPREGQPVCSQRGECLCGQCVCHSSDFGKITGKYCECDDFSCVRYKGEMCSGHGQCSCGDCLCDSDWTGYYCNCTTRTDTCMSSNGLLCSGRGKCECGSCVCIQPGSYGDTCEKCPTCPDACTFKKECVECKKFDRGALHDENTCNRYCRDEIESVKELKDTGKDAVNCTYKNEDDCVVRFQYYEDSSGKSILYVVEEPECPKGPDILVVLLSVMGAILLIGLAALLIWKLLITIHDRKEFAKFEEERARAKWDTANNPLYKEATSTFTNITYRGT
Integrin alpha-IIb/beta-3, sequence (P08514 32-887 limits assumed): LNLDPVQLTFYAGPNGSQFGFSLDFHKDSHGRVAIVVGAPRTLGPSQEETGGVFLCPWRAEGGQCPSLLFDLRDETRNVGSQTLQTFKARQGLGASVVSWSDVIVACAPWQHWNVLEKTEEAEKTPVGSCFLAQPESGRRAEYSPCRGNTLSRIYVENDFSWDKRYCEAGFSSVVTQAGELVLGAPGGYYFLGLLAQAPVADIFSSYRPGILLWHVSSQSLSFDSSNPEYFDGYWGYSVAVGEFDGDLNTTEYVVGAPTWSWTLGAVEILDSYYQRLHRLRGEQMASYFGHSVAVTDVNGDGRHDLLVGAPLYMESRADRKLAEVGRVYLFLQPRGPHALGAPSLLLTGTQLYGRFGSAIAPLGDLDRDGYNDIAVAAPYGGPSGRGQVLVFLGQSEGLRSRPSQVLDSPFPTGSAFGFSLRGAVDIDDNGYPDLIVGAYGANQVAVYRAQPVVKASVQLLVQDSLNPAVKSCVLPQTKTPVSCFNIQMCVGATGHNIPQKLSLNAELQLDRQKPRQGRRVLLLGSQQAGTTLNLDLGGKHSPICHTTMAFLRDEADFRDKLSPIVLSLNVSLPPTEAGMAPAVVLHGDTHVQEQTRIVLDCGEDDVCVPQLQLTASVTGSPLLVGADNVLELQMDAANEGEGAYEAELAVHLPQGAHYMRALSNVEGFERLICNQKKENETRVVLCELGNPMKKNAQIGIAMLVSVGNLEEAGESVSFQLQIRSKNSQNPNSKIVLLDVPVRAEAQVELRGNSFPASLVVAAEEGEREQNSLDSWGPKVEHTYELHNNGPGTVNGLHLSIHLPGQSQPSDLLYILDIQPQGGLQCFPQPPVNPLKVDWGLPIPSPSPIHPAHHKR
Integrin alpha-IIb/beta-3, sequence (P08514 891-1039 limits assumed): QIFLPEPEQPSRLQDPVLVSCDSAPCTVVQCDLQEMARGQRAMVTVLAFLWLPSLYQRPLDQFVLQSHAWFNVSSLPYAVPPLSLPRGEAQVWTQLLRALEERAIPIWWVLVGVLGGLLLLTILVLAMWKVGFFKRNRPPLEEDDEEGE

SMILES	Ki [1] [µM]	IC50 (Homo sapiens) [µM]
N=C(N)c1ccc(NC(=O)c2ccc3c(c2)NC(CC(=O)O)C(=O)N(CCc2ccccc2)C3)cc1 (configuration not stated)	0.0023	0.15
N=C(N)NCCC[C@@H]1NC(=O)[C@@H]2CCCN2C(=O)[C@H]2CCCN2C(=O)CNC(=O)[C@H](CC(=O)O)NC(=O)CNC1=O	1.9	5.26
N=C(N)c1ccc(NC(=O)c2ccc3c(c2)CN(CCc2ccccc2)C(=O)C(CC(=O)O)N3)cc1 (configuration not stated)	0.026	0.38
CN1C(=O)c2ccccc2SSc2ccccc2NC(=O)[C@H](CC(=O)O)NC(=O)CNC(=O)[C@@H]1CCCN=C(N)N [SKF-107260]		0.09
